The target of one assay is PRC2. On the set-up: method as in PMID 24304166. Conditions: activated versus basal PRC2; cited from earlier work.
The target in assay [1] is T1, HsPRC2_4 (Homo sapiens, UniProt Q15910).
T1 construct: intact HsPRC2_4 (full-length EZH2 (EZH2_FL) and SUZ12 co-migrate on SDS-PAGE); made in house; host or cells: Sf9 insect cells (baculovirus co-infection)
As to the kind of experiment: Inhibition of basal and activated states of HsPRC2_4. Type of assay: biochemical. Conditions: for Ki: SAM above Km, mean of two independent experiments.

The target in assay [2] is T1, HsPRC2_4. Description: Radioactive filter-binding histone methyltransferase assay, intact HsPRC2_4, oligonucleosome substrate. Type of assay: biochemical. An excerpt: (§1) (Prism, Graphpad Software Inc.).
For another assay, the target named is T2, HsPRC2_4 (Y641N) (Homo sapiens, UniProt Q15910, Y641N).
T2 construct: intact HsPRC2_4 (full-length EZH2 (EZH2_FL) and SUZ12 co-migrate on SDS-PAGE); made in house; host or cells: Sf9 insect cells (baculovirus co-infection)
T2 sequence (Q15910 whole entry Y641N): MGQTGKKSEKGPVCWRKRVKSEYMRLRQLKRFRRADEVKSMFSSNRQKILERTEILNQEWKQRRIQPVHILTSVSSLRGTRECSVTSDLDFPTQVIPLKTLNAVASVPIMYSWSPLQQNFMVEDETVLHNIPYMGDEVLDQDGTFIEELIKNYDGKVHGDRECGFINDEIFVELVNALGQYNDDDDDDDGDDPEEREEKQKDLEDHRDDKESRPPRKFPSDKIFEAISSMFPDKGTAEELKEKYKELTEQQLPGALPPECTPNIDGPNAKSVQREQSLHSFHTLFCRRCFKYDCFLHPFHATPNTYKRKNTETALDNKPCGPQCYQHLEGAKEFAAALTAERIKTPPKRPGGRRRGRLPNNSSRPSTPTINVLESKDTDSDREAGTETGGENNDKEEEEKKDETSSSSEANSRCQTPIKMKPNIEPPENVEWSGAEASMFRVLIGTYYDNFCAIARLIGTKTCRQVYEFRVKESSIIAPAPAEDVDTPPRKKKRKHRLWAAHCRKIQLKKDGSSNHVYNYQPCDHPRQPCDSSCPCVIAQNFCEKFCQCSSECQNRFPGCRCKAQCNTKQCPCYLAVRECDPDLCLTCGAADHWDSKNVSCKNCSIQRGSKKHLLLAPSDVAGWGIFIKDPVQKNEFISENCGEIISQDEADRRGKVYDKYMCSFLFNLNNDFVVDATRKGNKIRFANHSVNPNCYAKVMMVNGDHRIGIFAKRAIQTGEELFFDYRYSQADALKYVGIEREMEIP
T2 sequence (O75530 whole entry partner): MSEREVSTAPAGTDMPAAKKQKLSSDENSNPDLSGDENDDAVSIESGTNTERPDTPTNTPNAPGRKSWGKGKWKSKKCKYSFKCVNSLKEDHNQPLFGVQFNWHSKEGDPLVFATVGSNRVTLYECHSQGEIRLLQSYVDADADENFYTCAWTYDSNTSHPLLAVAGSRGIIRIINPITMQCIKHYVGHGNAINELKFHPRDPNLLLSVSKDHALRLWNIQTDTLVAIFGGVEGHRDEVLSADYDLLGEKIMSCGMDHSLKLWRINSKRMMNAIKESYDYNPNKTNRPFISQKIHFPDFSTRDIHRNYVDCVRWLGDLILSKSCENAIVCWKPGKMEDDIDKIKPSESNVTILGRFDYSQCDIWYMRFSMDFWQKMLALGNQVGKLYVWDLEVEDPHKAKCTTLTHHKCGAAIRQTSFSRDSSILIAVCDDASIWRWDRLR
T2 sequence (Q15022 whole entry partner): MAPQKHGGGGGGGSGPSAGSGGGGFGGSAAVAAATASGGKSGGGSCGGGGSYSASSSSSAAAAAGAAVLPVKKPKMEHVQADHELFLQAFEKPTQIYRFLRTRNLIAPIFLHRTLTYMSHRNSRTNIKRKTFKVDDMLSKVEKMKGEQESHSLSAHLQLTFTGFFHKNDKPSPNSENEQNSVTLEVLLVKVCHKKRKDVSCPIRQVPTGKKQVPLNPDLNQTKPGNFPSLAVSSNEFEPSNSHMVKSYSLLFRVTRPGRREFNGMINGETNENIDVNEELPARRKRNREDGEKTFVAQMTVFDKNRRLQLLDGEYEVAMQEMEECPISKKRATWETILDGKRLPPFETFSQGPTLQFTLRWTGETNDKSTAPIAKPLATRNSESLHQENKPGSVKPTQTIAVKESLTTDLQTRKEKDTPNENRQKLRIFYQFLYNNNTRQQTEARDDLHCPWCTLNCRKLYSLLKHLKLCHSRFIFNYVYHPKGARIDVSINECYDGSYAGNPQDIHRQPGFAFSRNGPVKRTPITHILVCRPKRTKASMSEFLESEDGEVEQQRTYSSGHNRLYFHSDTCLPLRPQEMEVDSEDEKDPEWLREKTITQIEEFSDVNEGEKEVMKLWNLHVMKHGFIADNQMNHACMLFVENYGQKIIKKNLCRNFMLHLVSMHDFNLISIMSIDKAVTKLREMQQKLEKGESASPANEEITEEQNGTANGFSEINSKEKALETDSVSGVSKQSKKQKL
T2 sequence (Q09028 whole entry partner): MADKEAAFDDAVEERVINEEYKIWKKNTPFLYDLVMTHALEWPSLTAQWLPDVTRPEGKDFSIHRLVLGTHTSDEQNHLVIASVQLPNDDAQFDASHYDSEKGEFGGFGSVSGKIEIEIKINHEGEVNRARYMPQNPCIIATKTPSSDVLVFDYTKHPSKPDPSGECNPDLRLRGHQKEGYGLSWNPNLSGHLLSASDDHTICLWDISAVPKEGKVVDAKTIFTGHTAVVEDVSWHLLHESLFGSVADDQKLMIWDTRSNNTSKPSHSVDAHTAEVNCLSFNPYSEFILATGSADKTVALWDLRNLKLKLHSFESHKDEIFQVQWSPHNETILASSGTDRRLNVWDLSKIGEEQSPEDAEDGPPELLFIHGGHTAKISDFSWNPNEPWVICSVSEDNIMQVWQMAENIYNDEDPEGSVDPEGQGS
Description: Radioactive filter-binding histone methyltransferase assay, HsPRC2_4 (Y641N), oligonucleosome substrate. Type of assay: biochemical.
From the text: as §1

The target of a further assay is T3, HsPRC2_4 (Y641N/Y661D) (Homo sapiens, UniProt Q15910, Y641N/Y661D).
T3 construct: intact HsPRC2_4 (full-length EZH2 (EZH2_FL) and SUZ12 co-migrate on SDS-PAGE); made in house; host or cells: Sf9 insect cells (baculovirus co-infection)
T3 sequence (Q15910 whole entry Y641N/Y661D): as the sequence (Q15910 whole entry Y641N) above, with Y661D counted along it
T3 sequence (O75530 whole entry partner): as the sequence (O75530 whole entry partner) above
T3 sequence (Q15022 whole entry partner): as the sequence (Q15022 whole entry partner) above
T3 sequence (Q09028 whole entry partner): as the sequence (Q09028 whole entry partner) above
Description: Radioactive filter-binding histone methyltransferase assay, HsPRC2_4 (Y641N/Y661D), oligonucleosome substrate. Type of assay: biochemical.
From the text: as §1

Another assay addresses T4, HsPRC2_4 (Y111L) (Homo sapiens, UniProt Q15910, Y111L).
T4 construct: intact HsPRC2_4 (full-length EZH2 (EZH2_FL) and SUZ12 co-migrate on SDS-PAGE); made in house; host or cells: Sf9 insect cells (baculovirus co-infection)
As to the kind of experiment: Radioactive filter-binding histone methyltransferase assay, HsPRC2_4 (Y111L), oligonucleosome substrate. The class given is biochemical.
From the text: as §1

A further assay deals with Hs/AcPRC2_X (Anolis carolinensis, UniProt G1KPH4, DEL368-454, form not given). Conditions: rH3 substrate; n=2, mean±s.d.
Hs/AcPRC2_X, sequence (G1KPH4 entry or part of it DEL368-454, form open): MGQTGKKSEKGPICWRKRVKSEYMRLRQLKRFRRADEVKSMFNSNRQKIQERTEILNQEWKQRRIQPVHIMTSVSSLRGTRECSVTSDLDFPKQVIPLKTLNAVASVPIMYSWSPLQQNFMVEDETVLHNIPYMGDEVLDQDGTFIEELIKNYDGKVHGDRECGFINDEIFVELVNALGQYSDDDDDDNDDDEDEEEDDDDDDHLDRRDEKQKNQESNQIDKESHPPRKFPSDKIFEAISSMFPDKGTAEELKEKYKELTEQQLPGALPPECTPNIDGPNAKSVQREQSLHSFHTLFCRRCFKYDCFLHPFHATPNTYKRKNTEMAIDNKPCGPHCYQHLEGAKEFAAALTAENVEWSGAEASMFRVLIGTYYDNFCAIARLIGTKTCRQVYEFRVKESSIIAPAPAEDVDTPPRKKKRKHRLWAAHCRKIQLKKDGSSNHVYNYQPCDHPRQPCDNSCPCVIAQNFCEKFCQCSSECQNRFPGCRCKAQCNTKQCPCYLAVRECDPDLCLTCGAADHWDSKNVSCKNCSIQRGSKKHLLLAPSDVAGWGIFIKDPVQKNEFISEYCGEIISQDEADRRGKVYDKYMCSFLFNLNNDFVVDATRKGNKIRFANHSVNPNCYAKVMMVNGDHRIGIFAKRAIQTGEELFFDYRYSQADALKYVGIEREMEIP
Hs/AcPRC2_X, sequence (Q15022 545-726 S583D, form open, further chain): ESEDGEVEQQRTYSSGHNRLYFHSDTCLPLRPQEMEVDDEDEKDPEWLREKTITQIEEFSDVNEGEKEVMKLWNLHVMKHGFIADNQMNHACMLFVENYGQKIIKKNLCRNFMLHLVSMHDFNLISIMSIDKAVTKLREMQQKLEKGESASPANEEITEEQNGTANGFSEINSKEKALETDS
Hs/AcPRC2_X, sequence (O75530 81-441, stated change not applied, form open, further chain): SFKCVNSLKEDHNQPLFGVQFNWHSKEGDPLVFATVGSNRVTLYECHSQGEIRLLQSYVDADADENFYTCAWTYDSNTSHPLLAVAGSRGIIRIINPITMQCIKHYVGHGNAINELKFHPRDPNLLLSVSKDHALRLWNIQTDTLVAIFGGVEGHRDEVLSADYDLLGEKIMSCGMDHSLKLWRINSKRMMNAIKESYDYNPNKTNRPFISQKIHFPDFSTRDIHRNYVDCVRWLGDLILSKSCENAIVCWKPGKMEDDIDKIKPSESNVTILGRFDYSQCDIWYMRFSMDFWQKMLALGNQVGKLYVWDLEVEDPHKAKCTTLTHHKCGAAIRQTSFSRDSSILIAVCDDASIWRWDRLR
Where [3] appears, read: oligonucleosome substrate, n=2, mean±s.d.

As a reminder, the Km is the concentration of substrate that gives half-maximal velocity. Usually Ki stands for a dissociation constant, usually derived from enzyme kinetics or from competition with a known ligand.

Structures are written as SMILES.

T1 sequence (Q15910 whole entry): as the sequence (Q15910 whole entry Y641N) above, with N641Y counted along it
T1 sequence (O75530 whole entry partner): as the sequence (O75530 whole entry partner) above
T1 sequence (Q15022 whole entry partner): as the sequence (Q15022 whole entry partner) above
T1 sequence (Q09028 whole entry partner): as the sequence (Q09028 whole entry partner) above
T4 sequence (Q15910 whole entry Y111L): as the sequence (Q15910 whole entry Y641N) above, with Y111L, N641Y counted along it
T4 sequence (O75530 whole entry partner): as the sequence (O75530 whole entry partner) above
T4 sequence (Q15022 whole entry partner): as the sequence (Q15022 whole entry partner) above
T4 sequence (Q09028 whole entry partner): as the sequence (Q09028 whole entry partner) above
Description for Hs/AcPRC2_X: Recombinant PRC2 was combined with methyl-acceptor substrate in 100 mM Tris pH 8.5, 0.01% Tween-20 and 4 mM DTT. In all, 44 μl was added to a microtiter plate containing 1 μl of 100% DMSO or test compound. SAM was prepared by combining ^3H-labelled SAM with unlabelled SAM in assay buffer, such that the specific activity was 0.4 μCi μl^−1. The reaction was initiated by adding 5 μl of SAM to the microtiter plate. Following incubation at room temperature, the reaction was stopped with the addition of 100 μl of 20% TCA. The tritiated-methyl-acceptor product was captured using a 96-well filter plate (MSIPN4B50, Millipore) and washed five times with phosphate-buffered saline buffer. Scintillation fluid (50 μl) was added to the dried filter plate and counted in a liquid scintillation counter. In assays where several different constructs were compared, we first established linearity of ^3H-labelled SAM incorporation over a 120-min period and then 30 min reactions using 7.5 nM of PRC2 and its variants with 3 μM of SAM and specific concentrations of various substrates, as described below, were performed in duplicates. […] The total counts for three independent experiments were plotted as mean±standard deviation. […] Ki values were determined by fitting background corrected counts to the Morrison equation for competitive tight binding inhibition using SAM Km values for each individual enzyme[49] […]

Turning to `CC[C@H](C)n1cc(C)c2c(C(=O)NCc3c(C)cc(C)[nH]c3=O)cc(-c3ccc(N4CCNCC4)nc3)cc21` [GSK126], at PRC2, the “Ki on activation of PRC2 by H3K27Me3 mark” value was “lower” and the “Residence time on activation of PRC2 by H3K27Me3 mark” value was “increased”.

Turning to `C[S+](CC[C@H](N)C(=O)[O-])C[C@H]1O[C@@H](n2cnc3c(N)ncnc32)[C@H](O)[C@@H]1O` (stereo partly drawn) [SAM, S-adenosyl-L-methionine, reference compound], at HsPRC2_4 [1] (intact HsPRC2_4 complex, read-out: Km, SAM), the Michaelis constant (Km) amounted to 1.5 µM.

As for `CCc1cc(C)[nH]c(=O)c1CN1CCc2c(Cl)cc(OC3CCN(C(=O)C(C)O)CC3)c(Cl)c2C1=O` (stereo not drawn) [inhibitor 1], the “Mode of inhibition (IC50 as a function of (SAM)/Km)” value at HsPRC2_4 [2] (HsPRC2_4, linear relationship of IC50 with (SAM)/Km, two independent experiments) is listed as “SAM-competitive”. Also, the Ki at HsPRC2_4 [2] (setting [3]) was found to be 1.63 ± 0.13 nM; on HsPRC2_4 (Y641N) (setting [3]), 4.56 ± 0.16 nM; on HsPRC2_4 (Y641N/Y661D) (setting [3]), 204 ± 16 nM; on HsPRC2_4 (Y111L) (setting [3]), 116.4 ± 0.7 nM; on HsPRC2_4 [1] (in the presence of the activator peptide H3K27Me3 (21-44)) it was 0.65 nM; at HsPRC2_4 [1] (no activator) it was 0.89 nM. The inhibition constant Ki at Hs/AcPRC2_X stood at 3.1 ± 0.11 nM. Moreover, the Sensitivity to inhibitor entry at HsPRC2_4 (Y641N) (Y641N HsPRC2_4) is recorded as “sensitive”. In addition, the Biochemical inhibition entry at HsPRC2_4 (Y641N/Y661D) (Y641N/Y661D HsPRC2_4) and at HsPRC2_4 (Y111L) (Y111L HsPRC2_4) was “refractory” throughout. Also, on HsPRC2_4 [1] (basal and stimulated states of HsPRC2_4), the “Inhibition profile, basal versus stimulated state” value is listed as “almost identical”.

(Values after publication PMC4853478 (Nature Communications, 2016).)
